Measurements taken from the OPERA property sets (Mansouri et al. 2018).
In brackets after ≈: the same amount, converted by molar mass.

Conditions: for solubility: 25 °C

| SMILES | logP | solubility [µM] |
| --- | --- | --- |
| Clc1c(Cl)c(Cl)c(Oc2ccccc2)c(Cl)c1Cl | 6.37 |  |
| Clc1ccc(Oc2cc(Cl)c(Cl)cc2Cl)cc1Cl | 6.6 |  |
| Clc1ccc(Oc2c(Cl)ccc(Cl)c2Cl)cc1 | 5.64 |  |
| Clc1ccccc1Oc1ccccc1 | 4.45 | 16.6 (≈ 3.4 µg/mL) |
| Clc1ccc(Oc2ccc(Cl)c(Cl)c2Cl)cc1 | 6.14 |  |
| Clc1ccc(Oc2cc(Cl)cc(Cl)c2)cc1 | 5.77 | 3.02 (≈ 0.826 µg/mL) |
| Clc1c(Cl)c(Cl)c(Oc2c(Cl)c(Cl)c(Cl)c(Cl)c2Cl)c(Cl)c1Cl | 8.16 |  |
| Clc1ccc(Oc2cc(Cl)cc(Cl)c2Cl)c(Cl)c1 | 6.54 |  |
| Clc1ccc(Oc2cccc(Cl)c2Cl)cc1Cl | 5.99 |  |
| Clc1ccc(Oc2cc(Cl)c(Cl)c(Cl)c2)cc1 | 6.3 |  |
| Clc1ccc(Oc2ccccc2)c(Cl)c1Cl | 5.55 |  |
| Clc1cc(Cl)c(Cl)c(Oc2ccccc2)c1 | 5.62 | 6.47 (≈ 1.77 µg/mL) |
| Clc1ccc(Oc2ccc(Cl)c(Cl)c2Cl)c(Cl)c1Cl | 6.82 |  |
| Clc1ccc(Oc2c(Cl)cc(Cl)cc2Cl)cc1 | 5.92 |  |
| Clc1ccc(Oc2c(Cl)c(Cl)c(Cl)c(Cl)c2Cl)c(Cl)c1 | 7.31 |  |
| Clc1cc(Oc2cc(Cl)c(Cl)c(Cl)c2Cl)c(Cl)c(Cl)c1Cl | 7.78 |  |
| Clc1cc(Cl)cc(Oc2ccccc2)c1 | 5.21 | 8.7 (≈ 2.08 µg/mL) |
| Clc1ccc(Oc2cccc(Cl)c2Cl)c(Cl)c1 | 5.88 |  |
| Clc1ccc(Oc2cc(Cl)c(Cl)c(Cl)c2Cl)cc1Cl | 7.07 |  |
| Clc1cc(Oc2c(Cl)c(Cl)c(Cl)c(Cl)c2Cl)c(Cl)c(Cl)c1Cl | 8.07 |  |

| SMILES | logP | solubility [µM] |
| --- | --- | --- |
| Clc1cc(Cl)cc(Oc2ccc(Cl)cc2Cl)c1 | 6.13 |  |
| Clc1cc(Oc2c(Cl)ccc(Cl)c2Cl)c(Cl)c(Cl)c1Cl | 6.98 |  |
| Clc1ccc(Oc2ccc(Cl)cc2)cc1 | 5.25 |  |
| Clc1cccc(Oc2ccc(Cl)cc2Cl)c1 | 5.65 | 3.62 (≈ 0.99 µg/mL) |
| Clc1ccc(Oc2c(Cl)c(Cl)c(Cl)c(Cl)c2Cl)cc1 | 6.95 |  |
| Clc1cc(Cl)c(Cl)c(Oc2ccccc2)c1Cl | 5.82 |  |
| Clc1ccc(Oc2ccccc2Cl)c(Cl)c1 | 4.96 | 11.2 (≈ 3.07 µg/mL) |
| Clc1cc(Cl)c(Oc2cc(Cl)c(Cl)c(Cl)c2)cc1Cl | 7.11 |  |
| Clc1ccc(Oc2ccc(Cl)c(Cl)c2Cl)c(Cl)c1 | 6.28 |  |
| Clc1cc(Oc2c(Cl)ccc(Cl)c2Cl)cc(Cl)c1Cl | 6.65 |  |
| Clc1ccc(Cl)c(Oc2cc(Cl)c(Cl)cc2Cl)c1 | 6.22 |  |
| Clc1ccc(Oc2cc(Cl)c(Cl)c(Cl)c2Cl)c(Cl)c1 | 6.72 |  |
| Clc1ccc(Oc2c(Cl)c(Cl)c(Cl)c(Cl)c2Cl)cc1Cl | 7.31 |  |
| Clc1ccc(Oc2c(Cl)c(Cl)cc(Cl)c2Cl)cc1 | 6.41 |  |
| Clc1ccc(Oc2ccc(Cl)c(Cl)c2)c(Cl)c1 | 6.13 |  |
| Clc1cc(Cl)cc(Oc2ccc(Cl)c(Cl)c2)c1 | 6.22 |  |
| Clc1ccc(Oc2cc(Cl)c(Cl)c(Cl)c2)cc1Cl | 6.83 |  |
| Clc1ccc(Oc2c(Cl)c(Cl)cc(Cl)c2Cl)cc1Cl | 6.78 |  |
| Clc1cccc(Oc2ccc(Cl)c(Cl)c2)c1 | 5.74 | 3.66 (≈ 1 µg/mL) |
| Clc1cc(Cl)cc(Oc2ccc(Cl)c(Cl)c2Cl)c1 | 6.58 |  |

| SMILES | logP | solubility [µM] |
| --- | --- | --- |
| Clc1ccc(Oc2c(Cl)cc(Cl)c(Cl)c2Cl)c(Cl)c1 | 6.84 |  |
| Clc1cc(Cl)c(Oc2ccccc2)c(Cl)c1Cl | 5.88 |  |
| Clc1ccc(Oc2c(Cl)ccc(Cl)c2Cl)cc1Cl | 6.31 |  |
| Clc1cc(Cl)c(Oc2cc(Cl)c(Cl)cc2Cl)cc1Cl | 6.72 |  |
| Clc1ccc(Oc2c(Cl)cccc2Cl)c(Cl)c1Cl | 6.11 |  |
| Clc1ccc(Oc2c(Cl)cc(Cl)cc2Cl)c(Cl)c1 | 6.11 |  |
| Clc1ccc(Oc2ccccc2)c(Cl)c1 | 4.93 | 23.4 (≈ 5.6 µg/mL) |
| Clc1ccc(Oc2c(Cl)c(Cl)cc(Cl)c2Cl)c(Cl)c1Cl | 7.14 |  |
| Clc1ccc(Oc2ccc(Cl)c(Cl)c2)cc1Cl | 6.36 |  |
| Clc1cccc(Cl)c1Oc1ccccc1 | 4.64 | 8.7 (≈ 2.08 µg/mL) |
| Clc1cc(Cl)c(Cl)c(Oc2cc(Cl)c(Cl)cc2Cl)c1 | 6.65 |  |
| Clc1ccc(Oc2ccccc2Cl)cc1 | 5.03 | 3.02 (≈ 0.722 µg/mL) |
| Clc1cccc(Oc2ccccc2)c1Cl | 5 |  |
| Clc1ccc(Oc2ccccc2)cc1 | 4.7 |  |
| Clc1ccc(Cl)c(Oc2ccc(Cl)c(Cl)c2)c1 | 6.11 |  |
| Clc1cc(Cl)cc(Oc2cc(Cl)c(Cl)cc2Cl)c1 | 6.66 |  |
| Clc1ccc(Oc2ccc(Cl)cc2Cl)cc1 | 5.53 | 0.603 (≈ 0.165 µg/mL) |
| Clc1ccc(Oc2ccccc2)cc1Cl | 4.99 | 19 (≈ 4.55 µg/mL) |
| Clc1ccc(Oc2cc(Cl)c(Cl)cc2Cl)c(Cl)c1 | 6.38 |  |
| Clc1cccc(Oc2ccc(Cl)c(Cl)c2Cl)c1Cl | 6.3 |  |

The next lines start with the values.

| logP | solubility [µM] | SMILES |
| --- | --- | --- |
| 6.47 |  | Clc1ccc(Oc2c(Cl)cc(Cl)c(Cl)c2Cl)cc1 |
| 6.06 |  | Clc1ccc(Oc2c(Cl)ccc(Cl)c2Cl)c(Cl)c1 |
| 5.13 | 17 (≈ 4.06 µg/mL) | Clc1ccc(Oc2cccc(Cl)c2)cc1 |
| 6.99 |  | Clc1cc(Oc2ccc(Cl)c(Cl)c2Cl)cc(Cl)c1Cl |
| 5.63 | 4.9 (≈ 1.34 µg/mL) | Clc1ccc(Oc2cccc(Cl)c2Cl)cc1 |
| 6.51 |  | Clc1ccc(Cl)c(Oc2ccc(Cl)c(Cl)c2Cl)c1 |
| 5.7 |  | Clc1ccc(Oc2c(Cl)cccc2Cl)cc1Cl |
| 6.22 |  | Clc1cc(Cl)c(Oc2cccc(Cl)c2Cl)cc1Cl |
| 5.13 | 10.7 (≈ 2.56 µg/mL) | Clc1ccc(Cl)c(Oc2ccccc2)c1 |
| 5.78 |  | Clc1ccc(Oc2cc(Cl)ccc2Cl)c(Cl)c1 |
| 6.47 |  | Clc1cc(Cl)c(Oc2c(Cl)ccc(Cl)c2Cl)cc1Cl |
| 6.07 |  | Clc1cccc(Oc2ccc(Cl)c(Cl)c2Cl)c1 |
| 6.49 |  | Clc1cc(Cl)c(Oc2cc(Cl)c(Cl)cc2Cl)c(Cl)c1 |
| 7.81 |  | Clc1cc(Cl)c(Oc2c(Cl)c(Cl)c(Cl)c(Cl)c2Cl)cc1Cl |
| 5.88 | 2.19 (≈ 0.598 µg/mL) | Clc1ccc(Oc2ccc(Cl)c(Cl)c2)cc1 |
| 6.52 |  | Clc1cc(Cl)c(Cl)c(Oc2ccc(Cl)c(Cl)c2)c1 |
| 5.97 |  | Clc1cc(Cl)c(Oc2ccccc2Cl)cc1Cl |
| 7.28 |  | Clc1ccc(Oc2cc(Cl)c(Cl)c(Cl)c2Cl)c(Cl)c1Cl |
| 6.01 |  | Clc1ccc(Oc2cc(Cl)cc(Cl)c2Cl)cc1 |
| 5.5 | 6.32 (≈ 1.73 µg/mL) | Clc1ccc(Oc2ccccc2Cl)cc1Cl |
| 5.99 |  | Clc1ccc(Oc2cc(Cl)c(Cl)cc2Cl)cc1 |
| 6.61 |  | Clc1ccc(Oc2cc(Cl)c(Cl)c(Cl)c2Cl)cc1 |

| logP | solubility [µM] | SMILES |
| --- | --- | --- |
| 6.51 |  | Clc1ccc(Oc2ccc(Cl)c(Cl)c2Cl)cc1Cl |
| 7.13 |  | Clc1cc(Cl)c(Oc2c(Cl)c(Cl)cc(Cl)c2Cl)cc1Cl |
| 4.75 | 61.6 (≈ 12.6 µg/mL) | Clc1cccc(Oc2ccccc2)c1 |
| 6.14 |  | Clc1cccc(Oc2cc(Cl)c(Cl)cc2Cl)c1 |
| 5.32 |  | Clc1cc(Cl)c(Oc2ccccc2)c(Cl)c1 |
| 7.46 |  | Clc1cc(Cl)c(Oc2cc(Cl)c(Cl)c(Cl)c2Cl)cc1Cl |
| 7.84 |  | Clc1ccc(Oc2c(Cl)c(Cl)c(Cl)c(Cl)c2Cl)c(Cl)c1Cl |
| 5.35 |  | Clc1ccc(Cl)c(Oc2ccccc2)c1Cl |
| 5.3 | 1.23 (≈ 0.337 µg/mL) | Clc1ccc(Oc2c(Cl)cccc2Cl)cc1 |
| 5.72 |  | Clc1ccccc1Oc1ccc(Cl)c(Cl)c1Cl |
| 5.66 | 3.63 (≈ 0.993 µg/mL) | Clc1ccc(Oc2cc(Cl)ccc2Cl)cc1 |
| 7.55 |  | Clc1cc(Oc2cc(Cl)c(Cl)c(Cl)c2Cl)cc(Cl)c1Cl |
| 6.63 |  | Clc1ccc(Oc2cc(Cl)c(Cl)c(Cl)c2)c(Cl)c1 |
| 5.7 |  | Clc1cc(Oc2ccccc2)cc(Cl)c1Cl |
| 7.01 |  | Clc1cc(Cl)c(Cl)c(Oc2cc(Cl)c(Cl)c(Cl)c2)c1 |
| 6.47 |  | Clc1ccc(Oc2c(Cl)ccc(Cl)c2Cl)c(Cl)c1Cl |
| 6.44 |  | Clc1cc(Cl)c(Oc2ccc(Cl)c(Cl)c2)c(Cl)c1 |
| 7.01 |  | Clc1cc(Cl)c(Oc2ccc(Cl)c(Cl)c2Cl)cc1Cl |
| 7.63 |  | Clc1cc(Oc2c(Cl)c(Cl)cc(Cl)c2Cl)c(Cl)c(Cl)c1Cl |
| 5.98 |  | Clc1cc(Cl)c(Oc2c(Cl)cccc2Cl)cc1Cl |
| 5.95 |  | Clc1ccc(Oc2ccc(Cl)cc2Cl)c(Cl)c1 |
